Experimental data: the NIST ThermoML archive (doi:10.1016/j.fluid.2016.02.009)

Details: Liquid, Vibrating tube method

CC(C)CCOCCC(C)C [di-(3-methylbutyl) ether]
Details	mass density [kg/m3]
283.15 K, 100 kPa	782.76
283.15 K, 5000 kPa	786.88
283.15 K, 10000 kPa	790.71
283.15 K, 15000 kPa	794.36
283.15 K, 20000 kPa	797.85
283.15 K, 25000 kPa	801.22
283.15 K, 30000 kPa	804.45
283.15 K, 35000 kPa	807.58
283.15 K, 40000 kPa	810.61
283.15 K, 45000 kPa	813.52
283.15 K, 50000 kPa	816.37
283.15 K, 55000 kPa	819.14
283.15 K, 60000 kPa	821.82
283.15 K, 65000 kPa	824.44
288.15 K, 100 kPa	778.71
288.15 K, 5000 kPa	782.95
288.15 K, 10000 kPa	786.89
288.15 K, 15000 kPa	790.64
288.15 K, 20000 kPa	794.22
288.15 K, 25000 kPa	797.65
288.15 K, 30000 kPa	800.95
288.15 K, 35000 kPa	804.15
288.15 K, 40000 kPa	807.23
288.15 K, 45000 kPa	810.19
288.15 K, 50000 kPa	813.09
288.15 K, 55000 kPa	815.91
288.15 K, 60000 kPa	818.64
288.15 K, 65000 kPa	821.33
293.15 K, 100 kPa	774.66
293.15 K, 5000 kPa	779.03
293.15 K, 10000 kPa	783.04
293.15 K, 15000 kPa	786.89
293.15 K, 20000 kPa	790.55
293.15 K, 25000 kPa	794.08
293.15 K, 30000 kPa	797.46
293.15 K, 35000 kPa	800.71
293.15 K, 40000 kPa	803.86
293.15 K, 45000 kPa	806.9
293.15 K, 50000 kPa	809.84
293.15 K, 55000 kPa	812.71
293.15 K, 60000 kPa	815.48
293.15 K, 65000 kPa	818.18
298.15 K, 100 kPa	770.6
298.15 K, 5000 kPa	775.09
298.15 K, 10000 kPa	779.24
298.15 K, 15000 kPa	783.18
298.15 K, 20000 kPa	786.94
298.15 K, 25000 kPa	790.54
298.15 K, 30000 kPa	793.99
298.15 K, 35000 kPa	797.31
298.15 K, 40000 kPa	800.51
298.15 K, 45000 kPa	803.61
298.15 K, 50000 kPa	806.62
298.15 K, 55000 kPa	809.51
298.15 K, 60000 kPa	812.33
298.15 K, 65000 kPa	815.07
303.15 K, 100 kPa	766.54
303.15 K, 5000 kPa	771.15
303.15 K, 10000 kPa	775.41
303.15 K, 15000 kPa	779.46
303.15 K, 20000 kPa	783.3
303.15 K, 25000 kPa	786.98
303.15 K, 30000 kPa	790.53
303.15 K, 35000 kPa	793.91
303.15 K, 40000 kPa	797.19
303.15 K, 45000 kPa	800.34
303.15 K, 50000 kPa	803.4
303.15 K, 55000 kPa	806.36
303.15 K, 60000 kPa	809.23
303.15 K, 65000 kPa	812.01
308.15 K, 100 kPa	762.46
308.15 K, 5000 kPa	767.21
308.15 K, 10000 kPa	771.57
308.15 K, 15000 kPa	775.74
308.15 K, 20000 kPa	779.67
308.15 K, 25000 kPa	783.45
308.15 K, 30000 kPa	787.05
308.15 K, 35000 kPa	790.52
308.15 K, 40000 kPa	793.86
308.15 K, 45000 kPa	797.07
308.15 K, 50000 kPa	800.19
308.15 K, 55000 kPa	803.2
308.15 K, 60000 kPa	806.11
308.15 K, 65000 kPa	808.94
313.15 K, 100 kPa	758.37
313.15 K, 5000 kPa	763.24
313.15 K, 10000 kPa	767.74
313.15 K, 15000 kPa	772.01
313.15 K, 20000 kPa	776.05
313.15 K, 25000 kPa	779.9
313.15 K, 30000 kPa	783.59
313.15 K, 35000 kPa	787.12
313.15 K, 40000 kPa	790.53
313.15 K, 45000 kPa	793.81
313.15 K, 50000 kPa	796.97
313.15 K, 55000 kPa	800.03
313.15 K, 60000 kPa	803
313.15 K, 65000 kPa	805.88
318.15 K, 100 kPa	754.27
318.15 K, 5000 kPa	759.27
318.15 K, 10000 kPa	763.91
318.15 K, 15000 kPa	768.28
318.15 K, 20000 kPa	772.42
318.15 K, 25000 kPa	776.38
318.15 K, 30000 kPa	780.14
318.15 K, 35000 kPa	783.75
318.15 K, 40000 kPa	787.22
318.15 K, 45000 kPa	790.57
318.15 K, 50000 kPa	793.81
318.15 K, 55000 kPa	796.91
318.15 K, 60000 kPa	799.93
318.15 K, 65000 kPa	802.85
323.15 K, 100 kPa	750.16
323.15 K, 5000 kPa	755.32
323.15 K, 10000 kPa	760.1
323.15 K, 15000 kPa	764.59
323.15 K, 20000 kPa	768.84
323.15 K, 25000 kPa	772.87
323.15 K, 30000 kPa	776.74
323.15 K, 35000 kPa	780.43
323.15 K, 40000 kPa	783.97
323.15 K, 45000 kPa	787.37
323.15 K, 50000 kPa	790.66
323.15 K, 55000 kPa	793.83
323.15 K, 60000 kPa	796.89
323.15 K, 65000 kPa	799.86
328.15 K, 100 kPa	746.03
328.15 K, 5000 kPa	751.35
328.15 K, 10000 kPa	756.23
328.15 K, 15000 kPa	760.85
328.15 K, 20000 kPa	765.22
328.15 K, 25000 kPa	769.33
328.15 K, 30000 kPa	773.28
328.15 K, 35000 kPa	777.06
328.15 K, 40000 kPa	780.66
328.15 K, 45000 kPa	784.15
328.15 K, 50000 kPa	787.49
328.15 K, 55000 kPa	790.7
328.15 K, 60000 kPa	793.83
328.15 K, 65000 kPa	796.84
333.15 K, 100 kPa	741.88
333.15 K, 5000 kPa	747.34
333.15 K, 10000 kPa	752.39
333.15 K, 15000 kPa	757.12
333.15 K, 20000 kPa	761.58
333.15 K, 25000 kPa	765.79
333.15 K, 30000 kPa	769.84
333.15 K, 35000 kPa	773.7
333.15 K, 40000 kPa	777.39
333.15 K, 45000 kPa	780.93
333.15 K, 50000 kPa	784.33
333.15 K, 55000 kPa	787.59
333.15 K, 60000 kPa	790.76
333.15 K, 65000 kPa	793.83
